Laboratory results published in US20110098495A1, “Compositions and methods of omega polyunsaturated fatty acids for the treatment of oral diseases” (priority 2009, published 2011).
Converted amounts (≈) assume the structure as drawn.

Tests used:
Assay type in all cases: cell-based
[1] = test system: Streptococcus mutans; assay: Streptococcus mutans growth inhibition, colony count on blood agar plate vs control; conditions: overnight culture 37° C, colony count vs negative control, read-out: IC50 against Streptococcus mutans
Procedure: (§1) The inventor verified the test by dissolving 1 mg of omega-3 fatty acids (EPA, DHA, and ALA) and omega-6 fatty acids (ARA, GLA), omega-3 fatty acid methyl esters (EPA-ME, DHA-ME, ALA-ME), and omega-3 fatty acid ethyl esters (EPA-EE, DHA-EE, ALA-EE) in 1000 μl ethanol solution; took 1 (final concentration 1 μg/ml) and 5 μl (final concentration 5 μg/ml) solution by adding 100 μl of Streptococcus mutans in the culture medium cultured overnight at 37° C. After the overnight culture, the medium was diluted 1:10000 times, 5 μl of the diluted culture was applied to blood agar plate and cultured overnight. Calculated the number of colonies on the plates and compared with the control group to obtain the percentage of inhibition.

[2] = test system: Candida albicans; assay: Candida albicans growth inhibition; conditions: final concentration 25 μg/ml
Procedure: [The procedure below names another organism; the source lists this organism under the same test.] as §1

[3] = test system: Actinobacillus actinomycetemcomitans; assay: Actinobacillus actinomycetemcomitans growth inhibition; conditions: Aggregatibacter actinomycetemcomitans; final concentration 15 μg/ml
Procedure: [The procedure below names another organism; the source lists this organism under the same test.] as §1

Row | IC50 [1] [µg/mL] | Compound | inhibition at 25 µg/mL [2] [%] | inhibition at 15 µg/mL [3] [%]
1 | ~5 (≈ 16.4 µM) | CCCCC/C=C\C/C=C\C/C=C\C/C=C\CCCC(=O)O [ARA, arachidonic acid] | 50 | 50
2 | ~5 (≈ 18 µM) | CCCCC/C=C\C/C=C\C/C=C\CCCCC(=O)O [GLA, γ-linolenic acid] |  | 
3 |  | CC/C=C\C/C=C\C/C=C\C/C=C\C/C=C\C/C=C\CCC(=O)O [DHA, docosahexaenoic acid] | 50 | 50
4 |  | CC/C=C\C/C=C\C/C=C\CCCCCCCC(=O)O [ALA, α-linolenic acid] | 50 | 50
5 |  | CC/C=C\C/C=C\C/C=C\C/C=C\C/C=C\CCCC(=O)O [EPA, eicosapentaenoic acid] | 50 | 50
